Measurements as given in the supplement of paper PMC10307832.

Assays:
Experiment in all cases: relative viability (nuclei count vs DMSO), 5 days (fraction); higher = more cells survive
[1] = compound: C(C(=O)C(=O)O)Br [Bromopyruvate] + CCNC(=O)c1noc(-c2cc(C(C)C)c(O)cc2O)c1-c1ccc(CN2CCOCC2)cc1 [Luminespib] (partner 0.01 µM)
In short: (§1)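 Cells from lung cancer lines were seeded into 1536-well plates and, one day later, dosed by pin tool. Treatments were either a single drug or a fixed dose of an anchor drug with five library-drug doses (not always all listed) in √10 steps. After 5 days, nuclei were stained in a one-step fixation (final 0.05% Triton X-100, 1% formaldehyde, 1 ug/ml Hoechst) and counted on 4× images, and relative viability is the treated-to-vehicle nuclei ratio, as the median of duplicate plates.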

[2] = compound: CC(O)(CS(=O)(=O)c1ccc(F)cc1)C(=O)Nc1ccc(C#N)c(C(F)(F)F)c1 [Bicalutamide] + C[C@]1(O)C[C@@H](c2nc(-c3ccc4ccc(-c5ccccc5)nc4c3)c3c(N)nccn32)C1 [Linsitinib] (partner 1 µM)
In short: as §1

[3] = compound: C(C(=O)C(=O)O)Br [Bromopyruvate] + Nc1ncn([C@H]2C[C@H](O)[C@@H](CO)O2)c(=O)n1 [Decitabine] (partner 2 µM)
In short: as §1

[4] = compound: C(C(=O)C(=O)O)Br [Bromopyruvate] + N=C(N)NC(=N)NCCc1ccccc1 [Phenformin] (partner 250 µM)
In short: as §1

Cell Line | relative viability ([1]; first compound 1 µM) | relative viability ([1]; first compound 3.162 µM) | relative viability ([1]; first compound 10 µM) | relative viability ([1]; first compound 31.62 µM) | relative viability ([1]; first compound 100 µM) | relative viability ([2]; first compound 0.08 µM) | relative viability ([2]; first compound 0.253 µM) | relative viability ([2]; first compound 0.8 µM) | relative viability ([2]; first compound 2.53 µM) | relative viability ([3]; first compound 1 µM) | relative viability ([3]; first compound 3.162 µM) | relative viability ([3]; first compound 10 µM) | relative viability ([3]; first compound 31.62 µM) | relative viability ([3]; first compound 100 µM) | relative viability ([4]; first compound 1 µM) | relative viability ([4]; first compound 3.162 µM) | relative viability ([4]; first compound 10 µM) | relative viability ([4]; first compound 31.62 µM) | relative viability ([4]; first compound 100 µM)
HOP-62 | 0.887 | 0.97 | 0.84 | 0.934 | 0.9 | 0.89 | 0.903 | 0.963 | 1.02 | 0.217 | 0.229 | 0.186 | 0.211 | 0.138 | 0.704 | 0.643 | 0.645 | 0.737 | 0.696
LOU-NH91 | 0.321 | 0.316 | 0.372 | 0.348 | 0.321 | 0.921 | 0.778 | 0.96 | 1.01 | 0.868 | 0.79 | 0.799 | 0.876 | 0.861 | 0.759 | 0.77 | 0.74 | 0.74 | 0.747
NCI-H23 | 0.216 | 0.182 | 0.238 | 0.203 | 0.201 | 0.584 | 0.526 | 0.498 | 0.454 | 0.299 | 0.294 | 0.308 | 0.277 | 0.303 | 0.778 | 0.842 | 0.837 | 0.809 | 0.857
PC-3 [JPC-3] | 0.797 | 0.752 | 0.766 | 0.608 | 0.693 | 0.927 | 1.02 | 0.986 | 1.02 | 0.866 |  | 0.91 |  | 0.738 | 0.495 | 0.488 | 0.458 | 0.493 | 0.493
NCI-H1437 | 1.16 | 1.19 | 1.16 | 1.12 | 1.1 | 1.01 | 1 | 1.28 | 0.965 | 0.672 | 0.588 | 0.524 | 0.583 | 0.577 | 0.339 | 0.293 | 0.398 | 0.281 | 0.288
NCI-H520 | 0.223 | 0.216 | 0.228 | 0.182 | 0.242 | 0.941 | 0.875 | 1.12 | 0.815 | 0.576 | 0.486 | 0.473 | 0.531 | 0.414 | 0.646 | 0.648 | 0.623 | 0.702 | 0.473
NCI-H1666 | 1.08 | 1.14 | 0.989 | 1.04 | 0.844 | 0.814 | 0.8 | 0.932 | 0.955 | 0.679 | 0.738 | 0.835 | 0.66 | 0.705 | 0.598 | 0.582 | 0.606 | 0.605 | 0.496
NCI-H1651 | 0.853 | 0.848 | 0.929 | 0.811 | 1.01 | 0.966 | 0.903 | 1.1 | 0.913 | 0.604 | 0.587 | 0.709 | 0.548 | 0.588 | 0.323 | 0.345 | 0.429 | 0.331 | 0.349
NCI-H1755 | 0.501 | 0.516 | 0.421 | 0.466 | 0.465 | 0.99 | 0.988 | 1.02 | 0.958 | 0.793 | 0.684 | 0.721 | 0.672 | 0.659 | 0.648 | 0.609 | 0.599 | 0.642 | 0.71
NCI-H727 | 0.277 | 0.571 | 0.218 | 0.377 | 0.592 | 0.234 | 0.356 | 0.295 | 0.269 | 0.815 | 1.09 | 0.966 | 0.915 | 0.871 | 0.607 | 0.778 | 0.578 | 0.622 | 0.527
HARA | 0.707 | 0.939 | 0.486 | 0.75 | 0.802 | 0.953 | 0.797 | 1.06 | 1.1 | 0.624 | 0.572 |  | 0.545 | 0.558 | 0.496 | 0.431 | 0.503 | 0.483 | 0.476
NCI-H647 | 0.203 | 0.306 | 0.108 | 0.109 | 0.4 | 1.2 | 1.17 | 1.48 | 0.955 | 0.439 | 0.362 | 0.405 | 0.393 | 0.474 | 0.5 | 0.637 | 0.578 | 0.494 | 0.494
NCI-H2347 | 0.783 | 0.522 | 0.686 | 0.401 | 0.702 | 1.1 | 0.944 | 1.02 | 0.934 | 0.605 | 0.643 | 0.541 | 0.616 | 0.635 | 0.463 | 0.35 | 0.572 | 0.312 | 0.566
LCLC-97TM1 | 0.727 | 0.792 | 0.864 | 0.708 | 0.709 | 0.185 | 0.188 | 0.199 | 0.185 | 0.246 | 0.226 | 0.263 | 0.243 | 0.16 | 0.411 | 0.397 | 0.359 | 0.439 | 0.415
EPLC-272H | 0.28 | 0.183 | 0.249 | 0.2 | 0.211 | 1.17 | 1.13 | 1.33 | 1.16 | 0.371 | 0.376 | 0.426 | 0.437 | 0.389 | 0.31 | 0.314 | 0.309 | 0.367 | 0.347
NCI-H1915 | 0.673 | 0.849 | 0.925 | 0.706 | 0.781 | 1.11 | 1.13 | 1.1 | 1.03 | 0.258 | 0.273 | 0.268 | 0.249 | 0.271 | 0.363 | 0.371 | 0.378 | 0.379 | 0.383
NCI-H3122 | 0.0847 | 0.0952 | 0.105 | 0.0703 | 0.0612 | 1.01 | 1.04 | 1.04 | 1.07 | 0.454 | 0.426 | 0.365 | 0.425 | 0.377 | 0.401 | 0.398 | 0.394 | 0.374 | 0.376
NCI-H441 | 0.445 | 0.505 | 0.323 | 0.524 | 0.38 | 0.6 |  | 0.863 | 0.404 | 0.324 | 0.238 | 0.243 | 0.22 | 0.242 | 0.852 | 0.945 | 0.796 | 0.743 | 0.838
